Test results published in publication PMC9712021 (Advances in Pharmacological and Pharmaceutical Sciences, 2022).

What was measured:
[1] = tested on: Artemia salina; experiment: Artemia salina bioassay (brine shrimp lethality bioassay)
Experimental: This test was carried out with a slight modification, as described by Amaral et al.. Briefly, shrimp cysts were incubated in a small aquarium containing a brine solution (50 mg of cysts and 300 mL of brine) for 48 h with direct lighting. […] […] In the negative (NC) and positive (PC) control groups, saline solution and potassium dichromate (K2Cr2O7) were added, respectively. The concentration range used in the case of the PC group was 31.25 to 500 μg/mL.

[2] = Hemolytic activity in mice erythrocytes; assay type: cell-based, Mus musculus; conditions: male, Swiss albino, mouse, mouse erythrocyte suspension, 37°C, 2 h
Experimental: (§1) This test was performed on adult Swiss albino mouse (Mus musculus) erythrocytes. The mouse was collected from the Central Animal House of the Federal University of Piaui, Brazil. It was allowed free access to standard food and water ad libitum and was kept under controlled lighting (12 h dark/light cycles) at 24 ± 2°C. Blood was collected from the retro-orbital plexus of the mouse (male, 24 gm body weight). Hemolytic activity in mouse erythrocytes was performed, according to Jamialahmadi et al..

[3] = tested on: mouse erythrocytes; experiment: Hemolytic activity in mice erythrocytes; assay type: cell-based; conditions: for Hemolysis (%): 37°C, 2 h
Experimental: as §1

[4] = tested on: S. cerevisiae EG103 (SODWT); experiment: S. cerevisiae central disc test, oxidative damage, strain SODWT; assay type: cell-based, Saccharomyces cerevisiae
Description: (§2) The central disc test was done according to the method presented by Islam et al.. Superoxide dismutase (CuZnSOD-Sod1) is a cytosolic enzyme that is faulty in strain EG118, whereas mitochondrial SOD is faulty in strain EG110 (MnSOD-Sod2). The strain EG133 has both Sod1 and Sod2 defects, while EG223 has a cytosolic catalase deficiency (Cat1). While EG103 is a competent strain that is identical to the wild-type (SODWT), EG is a dual isogenic strain for the Sod1 and Cat1 genes.

[5] = tested on: S. cerevisiae EG118 (Sod1∆); experiment: S. cerevisiae central disc test, oxidative damage, strain Sod1∆; assay type: cell-based, Saccharomyces cerevisiae
Description: as §2

[6] = tested on: S. cerevisiae EG110 (Sod2∆); experiment: S. cerevisiae central disc test, oxidative damage, strain Sod2∆; assay type: cell-based, Saccharomyces cerevisiae
Description: as §2

[7] = tested on: S. cerevisiae EG133 (Sod1∆Sod2∆); experiment: S. cerevisiae central disc test, oxidative damage, strain Sod1∆Sod2∆; assay type: cell-based, Saccharomyces cerevisiae
Description: as §2

[8] = tested on: S. cerevisiae EG223 (Cat1∆); experiment: S. cerevisiae central disc test, oxidative damage, strain Cat1∆; assay type: cell-based, Saccharomyces cerevisiae
Description: as §2

[9] = tested on: S. cerevisiae EG (Sod1∆Cat1∆); experiment: S. cerevisiae central disc test, oxidative damage, strain Sod1∆Cat1∆; assay type: cell-based, Saccharomyces cerevisiae
Description: as §2

[10] = tested on: S. cerevisiae strains (SODWT, Sod1Δ, Sod2Δ, Cat1Δ, Sod1/Sod2Δ, Cat1Δ/Sod1Δ); experiment: In vivo antioxidant (S. cerevisiae) test, all strains tested; assay type: cell-based, Saccharomyces cerevisiae
Description: as §2

For CC(C)=CCC/C(C)=C\CO [Nerol, cis-3,7-dimethyl-2,6-octadien-1], the “Artemia Salina mortality” value ([1]; 62.5 μg/mL, 48 h of exposure) was 100%, the “cytotoxic effects in the A. Salina test” value ([1]; 31.25–500 μg/mL) was “significant cytotoxic effects” and the hemolysis at 2 h, 31.25 μg/mL ([2]; pH 7.4, 31.25 μg/mL) was 2.67 ± 0.35%. For the same compound, the hemolysis at 2 h, 62.5 μg/mL ([2]; pH 7.4, 62.5 μg/mL) was 4.49 ± 0.26%, the hemolysis at 2 h, 125 μg/mL ([2]; pH 7.4, 125 μg/mL) was 5.12 ± 1.05% and the hemolysis at 2 h, 250 μg/mL ([2]; pH 7.4, 250 μg/mL) was 6.54 ± 1.78%. The hemolysis at 2 h, 500 μg/mL ([2]; pH 7.4, 500 μg/mL) was 39.1%, the “Hemolysis (%)” value ([3]; 500 μg/mL) was 34.95 ± 4.74^∗ % and the “cytotoxic effects in the hemolysis test” value ([3]; 31.25–500 μg/mL) was “significant cytotoxic effects”. It also gave an oxidative damage ([4]; 0.9 μg/mL) of 1.50 ± 0.70, an oxidative damage ([4]; 1.8 μg/mL) of 1.50 ± 0.70 and an oxidative damage ([4]; 7.2 μg/mL) of 2.00 ± 1.41. The oxidative damage ([4]; 14.4 μg/mL) was 2.50 ± 0.70, the oxidative damage ([4]; 32 μg/mL) was 2.00 ± 1.41 and the oxidative damage ([4]; 64 μg/mL) was 2.00 ± 1.41. It also gave an oxidative damage ([4]; 128 μg/mL) of 1.00 ± 0.28, an oxidative damage ([4]; 3.6 mg/mL) of 1.00 ± 0.28 and an oxidative damage ([4]; 256 mg/mL) of 2.00 ± 0.24. The oxidative damage ([4]; 500 mg/mL) was 1.00 ± 0.28, the oxidative damage ([5]; 0.9 μg/mL) was 1.50 ± 0.70 and the oxidative damage ([5]; 1.8 μg/mL) was 2.00 ± 1.41. The oxidative damage ([5]; 7.2 μg/mL) was 3.00 ± 1.41, the oxidative damage ([5]; 14.4 μg/mL) was 2.50 ± 0.70 and the oxidative damage ([5]; 32 μg/mL) was 3.50 ± 0.70. It also gave an oxidative damage ([5]; 64 μg/mL) of 1.50 ± 0.70, an oxidative damage ([5]; 128 μg/mL) of 2.00 ± 1.41 and an oxidative damage ([5]; 3.6 mg/mL) of 2.50 ± 0.70. For the same compound, the oxidative damage ([5]; 256 mg/mL) was 2.50 ± 0.70, the oxidative damage ([5]; 500 mg/mL) was 2.00 ± 0.24 and the oxidative damage ([6]; 0.9 μg/mL) was 1.00 ± 0.28. It also gave an oxidative damage ([6]; 1.8 μg/mL) of 3.00 ± 1.41, an oxidative damage ([6]; 7.2 μg/mL) of 3.00 ± 1.41 and an oxidative damage ([6]; 14.4 μg/mL) of 3.00 ± 1.41. It also gave an oxidative damage ([6]; 32 μg/mL) of 1.50 ± 0.70, an oxidative damage ([6]; 64 μg/mL) of 2.50 ± 0.70 and an oxidative damage ([6]; 128 μg/mL) of 2.50 ± 0.70. For the same compound, the oxidative damage ([6]; 3.6 mg/mL) was 2.50 ± 0.70, the oxidative damage ([6]; 256 mg/mL) was 2.00 ± 1.41 and the oxidative damage ([6]; 500 mg/mL) was 2.00 ± 0.24. The oxidative damage ([7]; 0.9 μg/mL) was 2.00 ± 1.41, the oxidative damage ([7]; 1.8 μg/mL) was 2.50 ± 0.70 and the oxidative damage ([7]; 7.2 μg/mL) was 3.00 ± 1.41. It also gave an oxidative damage ([7]; 14.4 μg/mL) of 3.00 ± 0.54, an oxidative damage ([7]; 32 μg/mL) of 4.50 ± 0.70 and an oxidative damage ([7]; 64 μg/mL) of 2.50 ± 0.70. The oxidative damage ([7]; 128 μg/mL) was 3.00 ± 1.41, the oxidative damage ([7]; 3.6 mg/mL) was 2.50 ± 0.70 and the oxidative damage ([7]; 256 mg/mL) was 2.50 ± 0.70. It also gave an oxidative damage ([7]; 500 mg/mL) of 2.50 ± 0.70, an oxidative damage ([8]; 0.9 μg/mL) of 1.50 ± 0.70 and an oxidative damage ([8]; 1.8 μg/mL) of 2.50 ± 0.70. The oxidative damage ([8]; 7.2 μg/mL) was 2.50 ± 0.70, the oxidative damage ([8]; 14.4 μg/mL) was 3.00 ± 0.54 and the oxidative damage ([8]; 32 μg/mL) was 3.50 ± 0.70. The oxidative damage ([8]; 64 μg/mL) was 3.00 ± 1.41, the oxidative damage ([8]; 128 μg/mL) was 3.00 ± 1.41 and the oxidative damage ([8]; 3.6 mg/mL) was 4.00 ± 1.2. It also gave an oxidative damage ([8]; 256 mg/mL) of 1.50 ± 0.70, an oxidative damage ([8]; 500 mg/mL) of 2.50 ± 0.70 and an oxidative damage ([9]; 0.9 μg/mL) of 2.50 ± 2.10. The oxidative damage ([9]; 1.8 μg/mL) was 2.50 ± 0.70, the oxidative damage ([9]; 7.2 μg/mL) was 3.00 ± 1.41 and the oxidative damage ([9]; 14.4 μg/mL) was 3.00 ± 1.41. The oxidative damage ([9]; 32 μg/mL) was 3.50 ± 0.70, the oxidative damage ([9]; 64 μg/mL) was 3.00 ± 1.41 and the oxidative damage ([9]; 128 μg/mL) was 2.50 ± 0.70. It also gave an oxidative damage ([9]; 256 μg/mL) of 3.00 ± 1.41, an oxidative damage ([9]; 3.6 mg/mL) of 3.00 ± 1.41 and an oxidative damage ([9]; 500 mg/mL) of 2.50 ± 0.70. For the same compound, the “percentage modulation of oxidative damage caused by the stressor H2O2” value ([10]; all strains and concentrations tested) was “more than 60%” and the “induction of oxidative damage” value ([10]; any concentration, any of the tested S. cerevisiae strains) was “did not induce oxidative damage”.
For Triton X-100 [reference compound], the “Hemolysis (%)” value ([3]; 31.25 μg/mL) was 100 ± 0.00^∗ %, the “Hemolysis (%)” value ([3]; 62.5 μg/mL) was 100 ± 0.00^∗ % and the “Hemolysis (%)” value ([3]; 125 μg/mL) was 100 ± 0.00^∗ %. The “Hemolysis (%)” value ([3]; 250 μg/mL) was 100 ± 0.00^∗ % and the “Hemolysis (%)” value ([3]; 500 μg/mL) was 100 ± 0.00^∗ %.
